From patent publication US20220264924A1, “METHODS AND COMPOSITIONS FOR IMPROVED TASTE QUALITY” (ALMENDRA PTE LTD, priority 2019, published 2022)
Where “and” joins values, the source holds several entries; their conditions need not be identical. Identical values can stand only once.

Tests used:
[1] = test system: human subject (sensory testing); conditions: R in Sucrose Equivalents of Sweetness; C in % (w/v); linear fit; cited from earlier work
[2] = test system: human subject (sensory testing); experiment: Sweetness Linger of standards in the sensory testing methodology; assay type: in vivo; conditions: perceived sweetness intensity @ 120 sec; standards in water: 10% Sucrose, 500 PPM REBA
From the text: In various aspects, the present disclosure pertains to methods of testing the disclosed sweetener compositions, e.g., a sensory methodology or method for sweetener evaluation. In a particular aspect, the sensory methodology used is known as a “Flavor Profile Analysis” as has been previously described (see: B. T. Carr, S. D. Pecore, K. M. Gibes and G. E. DuBois, “Sensory Methods for Sweetener Evaluation”, Chapter 11 In Flavor Measurement, C. T. Ho and C. H. Manley, Eds., Marcel Dekker, New York, N.Y., 1993). The full set of sensory parameters that are assessed in the sensory testing method are: (a) Sweetness Intensity (which can be abbreviated in tables herein as “S”); (b) Sourness Intensity ((which can be abbreviated in tables herein as “So”); (c) Saltiness Intensity (which can be abbreviated in tables herein as “Sa”); (d) Bitterness Intensity (which can be abbreviated in tables herein as “B”); (e) Body/Mouthfeel Intensity (which can be abbreviated in tables herein as “B/MF”); (f) Astringency Intensity (which can be abbreviated in tables herein as “A”); (g) Sweetness Linger (which can be abbreviated in tables herein as “SL”); (h) Sweetness Appearance Time (which can be abbreviated in tables herein as “AT”); and (i) Sweetness Desensitization (which can be abbreviated in tables herein as “SD”). […]

[3] = test system: human subject (sensory testing); conditions: cited from earlier work; for sweetness potency, times more potent than sucrose: sensory evaluations, relative to sucrose (Crammer and Ikan 1986); for sweetness potency, times higher than sucrose: relative to sucrose (Tanaka 1987; Phillips 1989)
[4] = water (Kinghorn 2002); cited from earlier work
[5] = test system: human subject (sensory testing); experiment: Sensory test: taste modulator effect on umami taste of MSG (Example 2); assay type: in vivo; conditions: 0-15 scale; average of three trials; MSG 12 mM
Protocol: (§1) Representative formulations within the scope of the disclosed formulations were prepared and subjected to sensory testing by the methods described above in the section entitled Testing Methodology, where formulations were rated on a 0-15 scales for the Taste Attributes: Umami Intensity (UI), Saltiness Intensity (SaI), Sourness Intensity (SoI), Bitterness Intensity (BI), Astringency Intensity (AI), and Mouthfeel Intensity (MF). In sensory test sessions, the number of samples evaluated was limited to four. In the initial phase of formulation screening, testing was carried out in triplicate with a single subject extensively experienced in the technique of flavor profile analysis.
(§2) This study assessed the effect of a disclosed taste modulation formulation on umami taste and other sensory perceptions as described above for the test method, i.e., Umami Intensity (UI), Sourness Intensity (SoI), Saltiness Intensity (SaI), Bitterness Intensity (BI), Mouthfeel Intensity (MF) and Astringency Intensity (AI).
(§3) The sensory protocol was as follows: • 1. Scramble ambient temperature samples so that each test solution is an unknown sample for sensory testing. • 2. Rinse mouth with 15 mL water while swishing vigorously followed by expectoration. • 3. Take 15 mL of the sample into the mouth and swish around vigorously for 15 sec scaling Umami Intensity (U), Sourness Intensity (So), Saltiness Intensity (Sa), Bitterness Intensity (B), Mouthfeel Intensity (MF) and Astringency Intensity (A) on 0-15 scales during this period and recording them in a table. • 4. Expectorate sample, rinse mouth vigorously with 15 mL water and expectorate at 15 sec. • 5. Note any change in sensory perceptions over the next 2 min and record observations in a table. • 6. Rinse mouth with 15 mL water with vigorous agitation in the mouth for 15 sec and expectorate. • 7. Wait a minimum of 15 min and repeat with next sample. • 8. Break sample code to identify samples.
Briefly, a stock solution of 10 mM KCl (746 mg/L)/3 mM MgCl2.6H2O (610 mg/L)/3 mM CaCl2 (333 mg/L) in 1.00 L water was prepared in a 1 L E-flask, stirring to full dissolution. 100 mL portions of the mineral salt solution were then transferred to two 250 mL plastic-capped glass bottles and 100 mL portions of water were added to the other two 250 mL plastic-capped glass bottles. Sample completion was carried out by addition of MSG as follows for Sample Nos. 1-4.
Three independent trials were carried out and the data are summarized below in Table 1, with individual results from each trial and average of the three trials as indicated.

[6] = test system: human subject (sensory testing); experiment: Sensory test: taste modulator effect on mouthfeel with MSG, varied MgCl2/CaCl2 (Example 4); assay type: in vivo; conditions: 0-15 scale, 12 mM MSG Stock Solution
Protocol: as §1, §3
as §2, with “effects” for “effect”
The sensory protocol was as described above in Example 2.
Briefly, a MSG Stock Solution of 12 mM MSG ([…]) was prepared and 100 mL portions of it were added to four 250 mL plastic-capped glass bottles. Sample preparation was completed as follows:
Eight independent trials were carried out and the average results are summarized below in Table 3.

OC[C@H]1O[C@@](CO)(O[C@H]2O[C@H](CO)[C@@H](O)[C@H](O)[C@H]2O)[C@@H](O)[C@@H]1O [Sucrose]
C/R Function [1]: R = C
SL (Sweetness Linger) [2]: 0

C[C@H](CC[C@@H](O[C@@H]1O[C@H](CO[C@@H]2O[C@H](CO)[C@@H](O)[C@H](O)[C@H]2O)[C@@H](O)[C@H](O)[C@H]1O[C@@H]1O[C@H](CO)[C@@H](O)[C@H](O)[C@H]1O)C(C)(C)O)[C@H]1CC[C@@]2(C)[C@@H]3CC=C4[C@@H](CC[C@H](O[C@@H]5O[C@H](CO[C@@H]6O[C@H](CO)[C@@H](O)[C@H](O)[C@H]6O)[C@@H](O)[C@H](O)[C@H]5O)C4(C)C)[C@]3(C)[C@H](O)C[C@]12C [mogroside V]
sweetness, times cane sugar ([3]; relative to cane sugar on a weight basis, estimated): approximately 250 times

Rebaudioside B [REBB]
water solubility [4]: about 0.1%
sweetness potency, times more potent than sucrose [3]: 300-350 times

N[C@@H](CCC(=O)[O-])C(=O)O.O.[Na+] [MSG Control 2, MSG-H2O]
AI (Astringency Intensity) Ave [5]: 0.0
BI (Bitterness Intensity) Ave [5]: 3.0
MF (Mouthfeel Intensity) Ave [5]: 3.0
Sal (Saltiness Intensity) Ave [5]: 2.0
Sol (Sourness Intensity) Ave [5]: 0.0
UI (Umami Intensity) Ave [5]: 4.7

Rebaudioside C
sweetness potency, times higher than sucrose [3]: 40-60 times

C=C1C[C@@]23CC[C@H]4[C@@](C)(CCC[C@@]4(C)C(=O)O[C@@H]4O[C@H](CO)[C@@H](O)[C@H](O)[C@H]4O)[C@@H]2CC[C@]1(O[C@@H]1O[C@H](CO)[C@@H](O)[C@H](O[C@@H]2O[C@H](CO)[C@@H](O)[C@H](O)[C@H]2O)[C@H]1O[C@@H]1O[C@H](CO)[C@@H](O)[C@H](O)[C@H]1O)C3 [Rebaudioside A]
SL (Sweetness Linger) [2]: 5
sweetness potency, times more potent than sucrose [3]: 350-450 times

C=C1C[C@@]23CC[C@H]4[C@@](C)(CCC[C@@]4(C)C(=O)O[C@@H]4O[C@H](CO)[C@@H](O)[C@H](O)[C@H]4O)[C@@H]2CC[C@]1(O[C@@H]1O[C@H](CO)[C@@H](O)[C@H](O)[C@H]1O[C@@H]1O[C@@H](C)[C@H](O)[C@@H](O)[C@H]1O)C3 [Dulcoside A]
sweetness potency, times higher than sucrose [3]: 30 times

N[C@@H](CCC(=O)[O-])C(=O)O.O.[Na+] [MSG Control 1, MSG-H2O]
AI (Astringency Intensity) Ave [5]: 0.0
BI (Bitterness Intensity) Ave [5]: 3.0
MF (Mouthfeel Intensity) Ave [5]: 3.3
Sal (Saltiness Intensity) Ave [5]: 2.0
Sol (Sourness Intensity) Ave [5]: 0.0
UI (Umami Intensity) Ave [5]: 4.7
AI (Astringency Intensity) ([6]; average of eight trials): 0.0
BI (Bitterness Intensity) ([6]; average of eight trials): 0.0
MF (Mouthfeel Intensity) ([6]; average of eight trials): 1.5
Sal (Saltiness Intensity) ([6]; average of eight trials): 2.0
Sol (Sourness Intensity) ([6]; average of eight trials): 0.0
UI (Umami Intensity) ([6]; average of eight trials): 5.0
MF rating, Mean ([6]; mean of eight trials): 1.50
MF rating, individual trials ([6]; trials 1-8): 1 (4×) and 2 (4×)

C=C1C[C@@]23CC[C@H]4[C@@](C)(CCC[C@@]4(C)C(=O)O[C@@H]4O[C@H](CO)[C@@H](O)[C@H](O)[C@H]4O)[C@@H]2CC[C@]1(O[C@@H]1O[C@H](CO)[C@@H](O)[C@H](O)[C@H]1O[C@@H]1O[C@H](CO)[C@@H](O)[C@H](O)[C@H]1O)C3 [Stevioside]
sweetness potency, times higher than sucrose [3]: 110-270 times
